Results published in patent US20140348819A1, “Methods of Treating Cancer” (Dana-Farber Cancer Institute, Inc., priority 2011, published 2014).

System: six V600E BRAF melanoma cell lines
Experiment: Screening of recombinant RTK ligands for ability to confer resistance to BRAFi (PLX4720) or MEKi (PD184352) (Table 4)
Assay type: cell-based, human
Design: ability of recombinant RTK ligand to confer resistance / ability of recombinant RTK ligand to confer resistance (screening value): scale not given here
Method: HGF is the only one that can substantially confer drug resistance to the cell lines.
The complexity of the tumor microenvironment is much greater than an in vitro co-culture system. Therefore, the inventors explored whether the activation of other RTKs could result in a similar resistance as that observed with the activation of MET. To this end, six V600E BRAF melanoma cell lines were tested for their resistance to either BRAFi (PLX4720) or MEKi (PD184352) after the addition of 22 RTK ligands that have the potential of activating almost all known RTKs. […] The activation of a selected subset of these RTKs was confirmed by western blotting and by high throughput tyrosine kinase phosphorylation profiling.

Substance: NGF
- ability of recombinant RTK ligand to confer resistance (A2058, PD184352 - 1 uM, ligand 0.4 ng/ml): 0.98
- ability of recombinant RTK ligand to confer resistance (A2058, PD184352 - 1 uM, ligand 1.6 ng/ml): 0.95
- ability of recombinant RTK ligand to confer resistance (A2058, PD184352 - 1 uM, ligand 6.25 ng/ml): 1.09
- ability of recombinant RTK ligand to confer resistance (A2058, PD184352 - 1 uM, ligand 25 ng/ml): 0.99
- ability of recombinant RTK ligand to confer resistance (A2058, PD184352 - 1 uM, ligand 100 ng/ml): 0.99
- ability of recombinant RTK ligand to confer resistance (A2058, PLX4720 - 2 uM, ligand 0.4 ng/ml): 1.04
- ability of recombinant RTK ligand to confer resistance (A2058, PLX4720 - 2 uM, ligand 1.6 ng/ml): 1.02
- ability of recombinant RTK ligand to confer resistance (A2058, PLX4720 - 2 uM, ligand 6.25 ng/ml): 1.06
- ability of recombinant RTK ligand to confer resistance (A2058, PLX4720 - 2 uM, ligand 25 ng/ml): 1.07
- ability of recombinant RTK ligand to confer resistance (A2058, PLX4720 - 2 uM, ligand 100 ng/ml): 0.98
- ability of recombinant RTK ligand to confer resistance (C32, PD184352 - 1 uM, ligand 0.4 ng/ml): 1.00
- ability of recombinant RTK ligand to confer resistance (C32, PD184352 - 1 uM, ligand 1.6 ng/ml): 1.07
- ability of recombinant RTK ligand to confer resistance (C32, PD184352 - 1 uM, ligand 6.25 ng/ml): 1.07
- ability of recombinant RTK ligand to confer resistance (C32, PD184352 - 1 uM, ligand 25 ng/ml): 0.98
- ability of recombinant RTK ligand to confer resistance (C32, PD184352 - 1 uM, ligand 100 ng/ml): 1.03
- ability of recombinant RTK ligand to confer resistance (C32, PLX4720 - 2 uM, ligand 0.4 ng/ml): 0.98
- ability of recombinant RTK ligand to confer resistance (C32, PLX4720 - 2 uM, ligand 1.6 ng/ml): 0.98
- ability of recombinant RTK ligand to confer resistance (C32, PLX4720 - 2 uM, ligand 6.25 ng/ml): 1.03
- ability of recombinant RTK ligand to confer resistance (C32, PLX4720 - 2 uM, ligand 25 ng/ml): 0.97
- ability of recombinant RTK ligand to confer resistance (C32, PLX4720 - 2 uM, ligand 100 ng/ml): 0.87
- ability of recombinant RTK ligand to confer resistance (Colo 829, PD184352 - 1 uM, ligand 0.4 ng/ml): 1.04
- ability of recombinant RTK ligand to confer resistance (Colo 829, PD184352 - 1 uM, ligand 1.6 ng/ml): 1.03
- ability of recombinant RTK ligand to confer resistance (Colo 829, PD184352 - 1 uM, ligand 6.25 ng/ml): 1.04
- ability of recombinant RTK ligand to confer resistance (Colo 829, PD184352 - 1 uM, ligand 25 ng/ml): 0.94
- ability of recombinant RTK ligand to confer resistance (Colo 829, PD184352 - 1 uM, ligand 100 ng/ml): 1.02
- ability of recombinant RTK ligand to confer resistance (Colo 829, PLX4720 - 2 uM, ligand 0.4 ng/ml): 0.96
- ability of recombinant RTK ligand to confer resistance (Colo 829, PLX4720 - 2 uM, ligand 1.6 ng/ml): 0.96
- ability of recombinant RTK ligand to confer resistance (Colo 829, PLX4720 - 2 uM, ligand 6.25 ng/ml): 1.02
- ability of recombinant RTK ligand to confer resistance (Colo 829, PLX4720 - 2 uM, ligand 25 ng/ml): 0.96
- ability of recombinant RTK ligand to confer resistance (Colo 829, PLX4720 - 2 uM, ligand 100 ng/ml): 1.03
- ability of recombinant RTK ligand to confer resistance (G-361, PD184352 - 1 uM, ligand 0.4 ng/ml): 1.09
- ability of recombinant RTK ligand to confer resistance (G-361, PD184352 - 1 uM, ligand 1.6 ng/ml): 0.78
- ability of recombinant RTK ligand to confer resistance (G-361, PD184352 - 1 uM, ligand 6.25 ng/ml): 0.97
- ability of recombinant RTK ligand to confer resistance (G-361, PD184352 - 1 uM, ligand 25 ng/ml): 0.85
- ability of recombinant RTK ligand to confer resistance (G-361, PD184352 - 1 uM, ligand 100 ng/ml): 0.94
- ability of recombinant RTK ligand to confer resistance (G-361, PLX4720 - 2 uM, ligand 0.4 ng/ml): 1.10
- ability of recombinant RTK ligand to confer resistance (G-361, PLX4720 - 2 uM, ligand 1.6 ng/ml): 0.87
- ability of recombinant RTK ligand to confer resistance (G-361, PLX4720 - 2 uM, ligand 6.25 ng/ml): 0.91
- ability of recombinant RTK ligand to confer resistance (G-361, PLX4720 - 2 uM, ligand 25 ng/ml): 0.92
- ability of recombinant RTK ligand to confer resistance (G-361, PLX4720 - 2 uM, ligand 100 ng/ml): 0.94
- ability of recombinant RTK ligand to confer resistance (SK-MEL-5, PD184352 - 1 uM, ligand 0.4 ng/ml): 1.03
- ability of recombinant RTK ligand to confer resistance (SK-MEL-5, PD184352 - 1 uM, ligand 1.6 ng/ml): 1.04
- ability of recombinant RTK ligand to confer resistance (SK-MEL-5, PD184352 - 1 uM, ligand 6.25 ng/ml): 0.96
- ability of recombinant RTK ligand to confer resistance (SK-MEL-5, PD184352 - 1 uM, ligand 25 ng/ml): 1.07
- ability of recombinant RTK ligand to confer resistance (SK-MEL-5, PD184352 - 1 uM, ligand 100 ng/ml): 1.09
- ability of recombinant RTK ligand to confer resistance (SK-MEL-5, PLX4720 - 2 uM, ligand 0.4 ng/ml): 1.00
- ability of recombinant RTK ligand to confer resistance (SK-MEL-5, PLX4720 - 2 uM, ligand 1.6 ng/ml): 1.03
- ability of recombinant RTK ligand to confer resistance (SK-MEL-5, PLX4720 - 2 uM, ligand 6.25 ng/ml): 0.85
- ability of recombinant RTK ligand to confer resistance (SK-MEL-5, PLX4720 - 2 uM, ligand 25 ng/ml): 0.93
- ability of recombinant RTK ligand to confer resistance (SK-MEL-5, PLX4720 - 2 uM, ligand 100 ng/ml): 0.92
- ability of recombinant RTK ligand to confer resistance (SK-MEL-28, PD184352 - 1 uM, ligand 0.4 ng/ml): 0.91
- ability of recombinant RTK ligand to confer resistance (SK-MEL-28, PD184352 - 1 uM, ligand 1.6 ng/ml): 0.92
- ability of recombinant RTK ligand to confer resistance (SK-MEL-28, PD184352 - 1 uM, ligand 6.25 ng/ml): 0.99
- ability of recombinant RTK ligand to confer resistance (SK-MEL-28, PD184352 - 1 uM, ligand 25 ng/ml): 0.96
- ability of recombinant RTK ligand to confer resistance (SK-MEL-28, PD184352 - 1 uM, ligand 100 ng/ml): 1.08
- ability of recombinant RTK ligand to confer resistance (SK-MEL-28, PLX4720 - 2 uM, ligand 0.4 ng/ml): 0.89
- ability of recombinant RTK ligand to confer resistance (SK-MEL-28, PLX4720 - 2 uM, ligand 1.6 ng/ml): 0.97
- ability of recombinant RTK ligand to confer resistance (SK-MEL-28, PLX4720 - 2 uM, ligand 6.25 ng/ml): 1.05
- ability of recombinant RTK ligand to confer resistance (SK-MEL-28, PLX4720 - 2 uM, ligand 25 ng/ml): 1.00
- ability of recombinant RTK ligand to confer resistance (SK-MEL-28, PLX4720 - 2 uM, ligand 100 ng/ml): 1.12
